Structures can show the parent of a compound that is named as a salt.
Molecular target: Sphingosine 1-phosphate receptor 1 (Homo sapiens, UniProt P21453)
Assay: direct activation of human S1P1 – cell-based, agonist mode, 60K MLSMR set, dose response (AID 468)
[1] = inactive by the depositor's call

Sphingosine 1-phosphate receptor 1, sequence (P21453 whole entry): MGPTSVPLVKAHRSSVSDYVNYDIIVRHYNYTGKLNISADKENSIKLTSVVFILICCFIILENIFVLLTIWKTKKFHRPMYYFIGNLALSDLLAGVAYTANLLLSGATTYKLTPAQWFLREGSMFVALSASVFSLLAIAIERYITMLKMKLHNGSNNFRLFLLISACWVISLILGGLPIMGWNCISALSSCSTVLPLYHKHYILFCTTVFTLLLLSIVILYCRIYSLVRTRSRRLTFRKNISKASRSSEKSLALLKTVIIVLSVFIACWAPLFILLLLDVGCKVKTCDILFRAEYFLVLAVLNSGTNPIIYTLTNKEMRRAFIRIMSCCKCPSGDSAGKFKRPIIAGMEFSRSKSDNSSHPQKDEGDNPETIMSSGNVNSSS

EC50 [µM]	EC50 [1] [µM]	SMILES
7.37		O=C(Nc1cccc(C(F)(F)F)c1)N1CCC(c2nc(-c3ccc(F)cc3)no2)CC1 [4-[3-(4-Fluoro-phenyl)-[1,2,4]oxadiazol-5-yl]-piperidine-1-carboxylic acid (3-trifluoromethyl-phenyl)-amide]
3.3		COc1ccc2c(c1)CCc1c(C(=O)Nc3ccc(OC)c(OC)c3)noc1-2 [MLS000087452]
2.23		Cc1cc(C(=O)CSc2nnnn2C)c(C)n1-c1cccc(F)c1 [1-[1-(3-fluorophenyl)-2,5-dimethyl-3-pyrrolyl]-2-[(1-methyl-5-tetrazolyl)thio]ethanone]
> 95		CCCOc1ccc(-c2nnc(-c3ccncc3)o2)cc1 [2-(4-propoxyphenyl)-5-(4-pyridyl)-1,3,4-oxadiazole]
2.77		Cc1nc2sccn2c1-c1csc(NCc2ccccc2)n1 [4-(6-methyl-5-imidazo[2,1-b]thiazolyl)-N-(phenylmethyl)-2-thiazolamine]
	95	COC(=O)c1ccc(C(c2c(N)n(CC(C)C)c(=O)[nH]c2=O)N2CCN(c3ccccc3)CC2)cc1 (stereo unspecified) [4-[[6-amino-1-(2-methylpropyl)-2,4-dioxo-5-pyrimidinyl]-(4-phenyl-1-piperazinyl)methyl]benzoic acid methyl ester]
> 0.03		CC1=NC(=O)NC(c2ccc(Cl)cc2)C1C(=O)OCc1ccc2c(c1)OCO2 (stereo unspecified) [1,3-benzodioxol-5-ylmethyl 4-(4-chlorophenyl)-6-methyl-2-oxidanylidene-3,4-dihydro-1H-pyrimidine-5-carboxylate]
	12.9	O=c1oc2cc(Br)ccc2n1CSC1=NCCS1 [6-Bromo-3-(4,5-dihydro-thiazol-2-ylsulfanylmethyl)-3H-benzooxazol-2-one]
0.568		CCOc1ccc(-c2nc(-c3ccc(OC)cc3)no2)cc1OCC [5-(3,4-Diethoxy-phenyl)-3-(4-methoxy-phenyl)-[1,2,4]oxadiazole]
6.76		Cc1csc(SCC(=O)c2cc(C)n(Cc3cccs3)c2C)n1 [1-[2,5-dimethyl-1-(2-thenyl)pyrrol-3-yl]-2-[(4-methylthiazol-2-yl)thio]ethanone]
2.36		COc1ccccc1Oc1ccc2c(c1)C(=O)N(c1cccc(O)c1)C2=O [2-(3-hydroxyphenyl)-5-(2-methoxyphenoxy)isoindole-1,3-dione]
1.78		Cc1ccc(-c2nnc(SCc3ccccc3F)o2)cc1 [2-[(2-fluorobenzyl)thio]-5-(4-methylphenyl)-1,3,4-oxadiazole]
2.23		O=C(Nc1ncc(Br)s1)C(Cc1ccccc1)n1cccc1 (stereo unspecified) [MLS000119027]
6.9		Nc1nonc1C(=O)NCCNCc1cc(Br)ccc1OCc1ccc(F)cc1 [4-amino-N-[2-[[5-bromo-2-(4-fluorobenzyl)oxy-benzyl]amino]ethyl]furazan-3-carboxamide;hydrochloride]
9.82		Cc1ccc(OCCn2cc(C(=N)NO)c3ccccc32)cc1C [1-[2-(3,4-dimethylphenoxy)ethyl]-N'-hydroxy-1H-indole-3-carboximidamide]
	25.4	CC1=C(/C=C/C(C)=C/C=C/C(C)=C/C(=O)O)C(C)(C)CCC1 [ALL-TRANS-RETINOIC ACID]
8.07		Nc1nonc1C(=O)NCCNCc1cc(Br)ccc1OCc1ccccc1F [4-amino-N-[2-[[5-bromo-2-(2-fluorobenzyl)oxy-benzyl]amino]ethyl]furazan-3-carboxamide;hydrochloride]
> 95		COC(=O)Cc1sc(=O)[nH]c1Nc1ccccc1 [MLS000111966]
4.29		CCOC(=O)CN1C(=O)C(C)(C)Oc2ccc(C(=O)Nc3ccccc3OC)cc21 [2-[3-keto-6-[(2-methoxyphenyl)carbamoyl]-2,2-dimethyl-1,4-benzoxazin-4-yl]acetic acid ethyl ester]
3.92		Clc1ccc(CSc2nnc(-c3ccncc3)o2)cc1 [2-[(4-chlorobenzyl)thio]-5-(4-pyridyl)-1,3,4-oxadiazole]
	13.2	Cc1cc(N2CCOCC2)nc(NCc2ccccc2)n1 [4-methyl-6-(4-morpholinyl)-N-(phenylmethyl)-2-pyrimidinamine]
	10.4	O=S(=O)(CCSc1ccccn1)c1nc2ccccc2s1 [2-(2-pyridin-2-ylsulfanylethylsulfonyl)-1,3-benzothiazole]
	22.5	CC/N=c1\sc(C(=O)NCCc2ccccc2)cc(=O)n1CC [3-Ethyl-2-[(Z)-ethylimino]-4-oxo-3,4-dihydro-2H-[1,3]thiazine-6-carboxylic acid phenethyl-amide]
	22.3	COc1ccc(-c2nc(-c3cccc(C(F)(F)F)c3)no2)cc1OC [5-(3,4-dimethoxyphenyl)-3-[3-(trifluoromethyl)phenyl]-1,2,4-oxadiazole]
	11	Cc1nc(C)c(C(=O)Nc2ccc(Oc3ccccc3)cc2)o1 [2,4-dimethyl-N-(4-phenoxyphenyl)-1,3-oxazole-5-carboxamide]
> 10		Cc1cc(C(=O)CC#N)c(C)n1-c1ccc(OC(F)F)cc1 [3-[1-[4-(difluoromethoxy)phenyl]-2,5-dimethyl-3-pyrrolyl]-3-oxopropanenitrile]
7.68		O=S1(=O)C=C(Sc2nc3ccccc3s2)c2ccccc21 [2-[(1,1-dioxido-1-benzothien-3-yl)thio]-1,3-benzothiazole]

EC50 [µM]	EC50 [1] [µM]	SMILES
1.65		Cc1ccc(-c2csc(N3CCC(NS(=O)(=O)c4ccc5c(c4)OCCO5)CC3)n2)cc1 [N-[1-[4-(4-methylphenyl)-1,3-thiazol-2-yl]piperidin-4-yl]-2,3-dihydro-1,4-benzodioxine-6-sulfonamide]
	95	Cc1cccc(-n2ncc3c(N(C)C4CCCCC4)ncnc32)c1 [MLS000100814]
9.63		Cn1c(=O)oc2cc(S(=O)(=O)N3CCCC(C(=O)N4CC=C(c5ccccc5)CC4)C3)ccc21 (stereo unspecified) [3-methyl-6-[3-(4-phenyl-3,6-dihydro-2H-pyridine-1-carbonyl)piperidin-1-yl]sulfonyl-1,3-benzoxazol-2-one]
6.14		c1ccc2c(c1)oc1c(N3CCN(Cc4ccc5c(c4)OCO5)CC3)ncnc12
1.87		COCCn1c(C)cc(C(=O)CSc2nnc(-c3cccnc3)n2-c2ccccc2F)c1C [2-[[4-(2-fluorophenyl)-5-(3-pyridinyl)-1,2,4-triazol-3-yl]thio]-1-[1-(2-methoxyethyl)-2,5-dimethyl-3-pyrrolyl]ethanone]
1.08		Cc1cc(C=Nn2cnnc2)c(C)n1-c1ccc(OCc2ccccc2F)cc1 [MLS000112180]
	47	COc1ccccc1-c1cc(C(=O)Nc2cc(C)nn2-c2ccccc2)no1 [5-(2-methoxyphenyl)-N-(3-methyl-1-phenyl-1H-pyrazol-5-yl)isoxazole-3-carboxamide]
2.44		O=C(CSC1=NCCS1)Nc1ccnc2ccccc12 [2-(4,5-dihydro-1,3-thiazol-2-ylsulfanyl)-N-quinolin-4-yl-ethanamide]
6.29		COC(=O)c1c(C)n(-c2ccc(OC)cc2)c2ccc(O)cc12 [5-hydroxy-1-(4-methoxyphenyl)-2-methyl-3-indolecarboxylic acid methyl ester]
	38.9	O=C(C1CCC1)N1CCc2cc(S(=O)(=O)Nc3ccc4c(c3)OCCO4)ccc21 [1-(cyclobutanecarbonyl)-N-(2,3-dihydro-1,4-benzodioxin-6-yl)-2,3-dihydroindole-5-sulfonamide]
	10.2	CCCC(=O)Nc1ccc(-c2nc3cc(C)c(C)cc3o2)cc1 [MLS000089940]
3.86		Cn1nc(C(C)(C)C)cc1C(=O)NCc1ccc(N2CCCC2=O)cc1 [5-tert-Butyl-2-methyl-2H-pyrazole-3-carboxylic acid 4-(2-oxo-pyrrolidin-1-yl)-benzylamide]
	10.6	CCc1ccc2c(COC(=O)c3n[nH]c4ccccc34)cc(=O)oc2c1 [(7-ethyl-2-oxochromen-4-yl)methyl 1H-indazole-3-carboxylate]
	14	COc1ccc(S(=O)(=O)Cc2ccc(C(=O)N3CCN(c4cccc(C)c4C)CC3)o2)cc1 [MLS000120226]
2.64		CC(C)c1ccc2oc(-c3ccc(N)cc3)nc2c1 [4-(5-propan-2-yl-1,3-benzoxazol-2-yl)aniline]
2.77		Cc1csc(NC(=O)C(Cc2ccccc2)n2cccc2)n1 (stereo unspecified) [MLS000119019]
	20.6	O=S1(=O)C=C(Sc2nnc(-c3ccccc3)o2)c2ccccc21
> 95		COc1ccc(CN=O)cc1COc1ccc(NC(C)=O)cc1 [MLS000111933]
1.15		Cn1c(-c2c(N)n(C3CCCC3)c3nc4ccccc4nc23)nc2ccccc21 [1-cyclopentyl-3-(1-methyl-2-benzimidazolyl)-2-pyrrolo[3,2-b]quinoxalinamine]
	15.4	CC(=O)Nc1ccc(S(=O)(=O)N2CCN(c3cccc(C)c3C)CC2)cc1 [MLS000115810]
3.66		N#CCCS(=O)(=O)c1nnnn1-c1ccccc1 [3-(1-phenyltetrazol-5-yl)sulfonylpropanenitrile]
6.03		CCc1ccc(N(CC)c2ncnc3nc[nH]c23)cc1
3.63		O=C(Nc1ccc(O)cc1)c1cc2n(n1)C(C(F)(F)F)CC(c1ccco1)N2 (stereo unspecified) [5-(2-furanyl)-N-(4-hydroxyphenyl)-7-(trifluoromethyl)-1,5,6,7-tetrahydropyrazolo[1,5-a]pyrimidine-2-carboxamide]
	18.4	CCOC(=O)N1CCC(NC(=O)C2CCCN(Cc3nc(-c4cccc(Cl)c4)oc3C)C2)CC1 (stereo unspecified) [4-[[1-[[2-(3-chlorophenyl)-5-methyl-oxazol-4-yl]methyl]nipecotoyl]amino]piperidine-1-carboxylic acid ethyl ester]
	10.5	CC(C)(CC(=O)N1CCN(c2ccc(Cl)cc2)CC1)CC1=NS(=O)(=O)c2ccccc2N1 [1-[4-(4-chlorophenyl)-1-piperazinyl]-4-(1,1-dioxo-4H-1,2,4-benzothiadiazin-3-yl)-3,3-dimethyl-1-butanone]
16.7		COc1ccc(-n2c(O)cc(Sc3nnc[nH]3)c2O)c(OC)c1 [1-(2,4-dimethoxyphenyl)-3-(1H-1,2,4-triazol-5-ylthio)pyrrolidine-2,5-dione]

SMILES	EC50 [µM]	EC50 [1] [µM]
CCCCOc1ccc(S(=O)(=O)Nc2cccnc2)cc1 [4-butoxy-N-(3-pyridinyl)benzenesulfonamide]	9.47	
CCn1nc(-c2ccccc2)nc2c(=O)n(C)c(=O)nc1-2 [1-Ethyl-6-methyl-3-phenyl-1H-pyrimido[5,4-e][1,2,4]triazine-5,7-dione]	3.55	
Cn1ncnc2c(=O)n(C)c(=O)nc1-2	1.4	

Reference: BindingDB's records for doi:10.7270/Q2251GJ9 (The Scripps Research Institute Molecular Screening Center, 2007)
